Data on two compounds can be found in US9211264B2, “Coated drug spheroids and uses thereof for eliminating or reducing conditions such as emesis and diarrhea” (Wyeth LLC, priority 2009, dated 2015).

A short description of data set [1]: GI tolerability with and without concurrent ketoconazole (subjects reporting GI AEs). In kind it is in vivo. The procedure:
(§1) Exposure studies were performed to determine if gastrointestinal tolerability is related to systemic exposure of neratinib maleate.
Subjects Reporting GI AEs

The nature of data set [2]: Exposure study: neratinib pharmacokinetics with and without concurrent ketoconazole. The settings on record: human, in vivo, 240 mg, 240 mg neratinib. Here is the method: as §1
Data set [3] in a line: Gastrointestinal adverse events in single dose clinical studies of healthy subjects. The format is in vivo, human. The note with it: 192 healthy subjects, five single doses. The text has this:
In a clinical study, 192 healthy subjects were given five single doses of neratinib maleate. Adverse events were observed and classified as follows: • Grade 1 gastrointestinal adverse events (GI AEs) ˜25%40% • Grade 2 gastrointestinal adverse events (GI AEs) ˜15%
Grade 1 and 2 gastrointestinal adverse events predominated as the adverse events observed in clinical studies of healthy subjects.

Data set [4] is described as follows: Adverse events in multiple dose clinical studies of cancer patients. The settings on record: cancer patients (>400), single agent and combination. The format is in vivo, human. The text has this:
Adverse events in clinical studies of cancer patients were observed and classified as follows: • Nausea, Vomiting, Diarrhea, Dehydration, Anorexia (˜95%) • Asthenia, Fatigue (˜30-60%) • Rash (˜20-25%) • Elevated ALT, AST (<10%)

Where a name gives a salt, the structure may show the parent alone. Read-outs that look alike come from different tables or passages of the source. Where only a bound is given, the exact number is not on record here.

A word on the Cmax: it is the highest concentration seen after dosing. Turning to `CCOc1cc2ncc(C#N)c(Nc3ccc(OCc4ccccn4)c(Cl)c3)c2cc1NC(=O)/C=C/CN(C)C` [Neratinib, (E)-N-(4-(3-chloro-4-(pyridin-2-ylmethoxy)phenylamino)-3-cyano-7-ethoxyquinolin-6-yl)-4-(dimethylamino) but-2-enamide], the “Subjects Reporting GI AEs: GI Disorders” value in data set [1] (240 mg neratinib) stood at 31.8%. The AUC(0-t) in data set [2] (geometric mean in brackets, read-out: AUC t [Geo mean]) stood at 727 ng·h/mL; in data set [2] (value outside brackets, read-out: AUC t), 835 ng·h/mL. Moreover, the AUC(0-inf) in data set [2] (geometric mean in brackets, read-out: AUC∞ [Geo mean]) is 802 ng·h/mL; in data set [2] (value outside brackets, read-out: AUC∞), 903 ng·h/mL. Also, the Cmax in data set [2] (geometric mean in brackets, read-out: Cmax [Geo mean]) is 51.5 ng/mL; in data set [2] (value outside brackets, read-out: Cmax), 55.3 ng/mL.

Consider `CCOc1cc2ncc(C#N)c(Nc3ccc(OCc4ccccn4)c(Cl)c3)c2cc1NC(=O)/C=C/CN(C)C` [neratinib maleate, (E)-N-(4-(3-chloro-4-(pyridin-2-ylmethoxy)phenylamino)-3-cyano-7-ethoxyquinolin-6-yl)-4-(dimethylamino) but-2-enamide], for which, in data set [1] (exposure studies with concurrent ketoconazole), the “GI tolerability (diarrhea) relation to systemic exposure” value is recorded as “not related to systemic exposure”. Besides, the “Grade 2 gastrointestinal adverse events (GI AEs)” value in data set [3] is listed as around 15%. In data set [4], the “Asthenia, Fatigue” value is listed as 30-60%; the “Elevated ALT, AST” value is below 10%; the “Nausea, Vomiting, Diarrhea, Dehydration, Anorexia” value was around 95%; the Rash is 20-25%.
